Data as given in patent US20090291964A1, “Potentiators of Antibacterial Activity” (priority 2003, published 2009).

Experiments:
Assay type in all cases: cell-based
[1] = test system: S. aureus SA-1199 (clinical isolate, susceptible); experiment: MIC of fluoroquinolones with and without EPI; details: S. aureus SA-1199; EPI at 4X the MEC for EtBr, VX-710 at 100 μg/ml
Summary of the method: (§1)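 Fluoroquinolone MICs determined with and without efflux pump inhibitor; all assays contained 1% DMSO final. SA-8325-4 is NCTC 8325 cured of prophages; SA-1199 is a susceptible clinical isolate.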

[2] = test system: S. aureus SA-8325-4; experiment: MIC of fluoroquinolones with and without EPI; details: S. aureus SA-8325-4; EPI at 4X the MEC for EtBr, VX-710 at 100 μg/ml
Summary of the method: as §1

[3] = test system: S. aureus K2068; experiment: Minimal effective concentration (MEC) of EPI for gatifloxacin
Method: (§2) The MEC was determined as the minimal concentration of EPI that produced the maximal reduction in substrate MIC.
(§3) Since any given compound may be recognized by an unknown number of efflux pumps in a particular organism, we reasoned that the MEC of A-106 and C-9 should vary for different antibiotics. Also, the MEC of A-106 and C-9 should vary with the degree of efflux expression in a given strain. […] This was confirmed with two other wild type strains, SA-8325-4 and SA-1199 (Table 3).
(§4) The MEC of A-106 and C-9 for gatifloxacin was determined in these efflux mutants. […] A similar result was obtained with efflux mutant K2068, where the MEC for A-106 was 6.25 μg/ml and the MEC for C-9 was 3.1 μg/ml. […] This may reflect that either gatifloxacin is recognized by fewer pumps than EtBr or it is a poorer efflux substrate in general. This is consistent with the finding that the activity of A-106 was non-saturable for EtBr but is saturable for gatifloxacin.

[4] = test system: S. aureus SA-1199B; experiment: as above
Method: as §2, §3, §4

[5] = test system: S. pneumoniae ATCC 10015; experiment: Minimal effective concentration (MEC) of EPI for EtBr; details: lowest amount of EPI which produces the maximum effect on the MIC of ethidium bromide (reserpine: maximal subinhibitory concentration)
Method: as §2
(§5) The minimum effective concentration (MEC) for inhibition of EtBr efflux was determined in S. aureus, E. faecalis and S. pneumoniae for A-106 and C-9; reserpine was used as a comparator (Table 1).

[6] = test system: E. faecalis ATCC 29212; experiment: as above; details: lowest amount of EPI which produces the maximum effect on the MIC of ethidium bromide
Method: as §2, §5

[7] = test system: S. aureus ATCC 29213; experiment: as above
Method: as §2, §5

[8] = test system: S. aureus SA-1199B (NorA overproducing); experiment: MIC of fluoroquinolones with and without EPI
Summary of the method: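 Fluoroquinolone MICs determined with and without efflux pump inhibitor in S. aureus SA-1199B (NorA overproducer with A116E GrlA mutation) and SA-K2068 (SA-8325-4 with a non-NorA multidrug efflux pump overproducing mutation). All assays contained 1% DMSO final.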

[9] = test system: S. aureus ATCC 29213; experiment: MIC by NCCLS microdilution, antibacterial agents with and without EPI
Summary of the method: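 Efflux pump inhibitors were combined at fixed concentrations with antibiotics from several classes and tested against Staphylococcus aureus ATCC 29213 to compare minimum inhibitory concentrations with and without inhibitor. The inhibitor level was tied to its minimal effective concentration for ethidium bromide, a general efflux pump substrate. All assays contained a final concentration of 1% DMSO.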

[10] = test system: S. aureus ATCC 29213; experiment: Minimal effective concentration (MEC) of EPI for gatifloxacin; details: lowest amount of EPI which produces the maximum effect on the MIC of gatifloxacin
Method: as §2, §3

[11] = S. aureus SA-1199B, EPI at 4X the MEC for EtBr, VX-710 at 100 μg/ml
[12] = SA-1199B, EPIs at 4 times MEC for EtBr, A-106 at 100 μg/ml
[13] = S. aureus ATCC 29213, EPI at 4X the MEC for EtBr, VX-710 at 100 μg/ml
[14] = S. aureus ATCC 29213, EPIs used at the MEC, except VX-710 at 100 μg/ml

SMILES: COc1cc(C(=O)C(=O)N2CCCC[C@H]2C(=O)OC(CCCc2cccnc2)CCCc2cccnc2)cc(OC)c1OC [A-106]
- MIC of EtBr with EPI [1]: 0.2 µg/mL
- MIC of ciprofloxacin with EPI [1]: 0.063 µg/mL
- MIC of gatifloxacin with EPI [1]: 0.063 µg/mL
- MIC of gentamicin with EPI [1]: 0.125 µg/mL
- MIC of levofloxacin with EPI [1]: 0.125 µg/mL
- MIC of norfloxacin with EPI [1]: 0.125 µg/mL
- MIC of EtBr with EPI [2]: <0.1 µg/mL
- MIC of ciprofloxacin with EPI [2]: 0.125 µg/mL
- MIC of gatifloxacin with EPI [2]: 0.125 µg/mL
- MIC of gentamicin with EPI [2]: 0.063 µg/mL
- MIC of levofloxacin with EPI [2]: 0.25 µg/mL
- MIC of norfloxacin with EPI [2]: 0.25 µg/mL
- MEC ([3]; S. aureus K2068 (nonNorA pump overproducer), lowest amount of EPI which produces the maximum effect on the MIC of gatifloxacin): 6.25 µg/mL
- MEC for gatifloxacin ([3]; efflux mutant K2068): 6.25 µg/mL
- MEC ([4]; S. aureus SA-1199B (NorA overproducer), lowest amount of EPI which produces the maximum effect on the MIC of gatifloxacin): 12.5 µg/mL
- MEC for gatifloxacin ([4]; efflux mutant, strain not named in the sentence (SA-1199B by context)): 12.5 µg/mL
- MEC of EPI [5]: ≧100 μg/ml
- MEC of EPI [6]: ≧100 μg/ml
- MEC for EtBr efflux ([7]; ATCC 29213, Table 1): ≤ 100 µg/mL
- MEC of EPI ([7]; S. aureus ATCC 29213, lowest amount of EPI which produces the maximum effect on the MIC of ethidium bromide): ≧100 μg/ml
- MIC of gatifloxacin with EPI ([8]; S. aureus SA-1199B (NorA overproducer) (Table 4)): 0.25 µg/mL
- MIC of EtBr with EPI [8, 11]: 0.4 µg/mL
- MIC of ciprofloxacin with EPI [8, 11]: 0.5 µg/mL
- MIC of levofloxacin with EPI [8, 11]: 0.5 µg/mL
- MIC of norfloxacin with EPI [8, 11]: 2 µg/mL
- reduction of MIC of ciprofloxacin [8, 12]: 2 fold
- reduction of MIC of gatifloxacin [8, 12]: 2 fold
- reduction of MIC of levofloxacin [8, 12]: 1 fold
- reduction of MIC of norfloxacin [8, 12]: 8 fold
- Fold-reduction in MIC ([8]; gatifloxacin, S. aureus SA-1199B (NorA overproducer)): 2
- MIC of gatifloxacin with EPI ([9]; S. aureus ATCC 29213 (Table 4)): 0.125 µg/mL
- effect on the MICs of gatifloxacin, erythromycin, azithromycin, chloramphenicol, ceftriaxone, and linezolid ([9]; S. aureus ATCC 29213, Table 2): No effect
- MIC of EPI ([9]; S. aureus ATCC 29213, EPI alone): >100 µg/mL
- MIC of EtBr with EPI [9, 13]: 0.2 µg/mL
- MIC of ciprofloxacin with EPI [9, 13]: 0.063 µg/mL
- MIC of gatifloxacin with EPI [9, 13]: 0.063 µg/mL
- MIC of gentamicin with EPI [9, 13]: 0.125 µg/mL
- MIC of levofloxacin with EPI [9, 13]: 0.125 µg/mL
- MIC of norfloxacin with EPI [9, 13]: 0.125 µg/mL
- Fold-reduction in EtBr MIC [9, 14]: 31
- MIC of EtBr with EPI [9, 14]: 0.2 µg/mL
- reduction of the MIC of EtBr ([9]; S. aureus wild type, EPI up to 100 μg/ml, data not shown): 30 fold
- Fold-reduction in MIC ([9]; gatifloxacin, S. aureus ATCC 29213): 1
- effect of EPI on the MIC of gatifloxacin ([9]; wild type strain ATCC 29213): unaffected
- MEC [10]: >100 µg/mL
